# Where a name gives a salt, the structure may show the parent alone. *1 amine or outer side, *2 acyl side, *3 side chain or, on linkers, in order; H or OH if unused. Where a SMILES comes first, the peptide text is derived from it. [ ]: non-standard residue; d: D form. γGlu = O=C(O)[C@H](CCC(=O)[*:2])N[*:1]
# Legend:
# [1] = anti-odor test, panel by sniffing: thiol or similar malodor compound in anhydrous composition
# Procedure: In the same manner, the degree of reducing the presence or preventing the production of malodor generated by a thiol or similar malodor compounds in an anhydrous composition containing a solvent or ingredient of the present embodiments was judged by three-member panel through olfactory sensor by sniffing as (a) no difference from control, (b) slight malodor, (c) trace malodor, and (d) no malodor. In an initial test, a solvent or liquid ingredient of the present embodiments at 4.5 ml was added to a test tube, and a thiol or similar malodor compounds 0.5 g was added to make 10% thiol or similar malodor compounds in the solution. The control solution was prepared by dissolving a thiol or similar malodor compounds 0.5 g in water 4.5 ml to make 10% aqueous solution. The above test solutions including the control solutions were judged by the panel for the anti-odor effect and the degree of reducing the presence or preventing the production of malodor was recorded in the same way as (a) no effect (no difference from control), (b) slight malodor (50% effective), (c) trace malodor (90% effective), and (d) no malodor (completely effective).
# [2] = anti-odor test, panel by sniffing: N-acetyl-L-cysteine dissolved in a single solvent or liquid ingredient (anhydrous composition); conditions: for anti-odor effect: 10% N-acetyl-L-cysteine and 90% solvent or liquid ingredient
# Procedure: An anti-odor test was carried out in an anhydrous solvent according to the following example. In a series of test tubes, 4.5 ml of a solvent was added to a test tube such that each test tube comprised a single solvent. The solvents added to the test tubes included water, ethanol, acetone, n-propanol, isopropyl alcohol, propylene glycol, butylenes glycol, benzyl alcohol, ethoxydiglycol, 2-ethyl-1,3-hexanediol. N-Acetyl-L-cysteine (MW 163) 0.5 g was then added and dissolved in each solvent. The test tubes were warmed slightly to enhance dissolution of N-acetyl-L-cysteine crystals. Each test tube contained 10% N-acetyl-L-cysteine and 90% solvent.
# An anti-odor test was carried out in an anhydrous composition according to the following example. In a series of test tubes, 4.5 ml of a liquid ingredient was added to a test tube such that each test tube comprised a single liquid ingredient. The liquid ingredients added to a test tube included ethyl glycolate, ethyl-L-lactate, diethyl tartrate, triethyl citrate, tripropyl citrate, ethyl-DL-mandelate, benzyl N-acetyl-prolinate, ethyl N-acetyl-prolinate, propyl N-acetyl-prolinate. N-Acetyl-L-cysteine (MW 163) 0.5 g was then added and dissolved in each liquid ingredient. The test tubes were warmed slightly to enhance dissolution of N-acetyl-L-cysteine crystals. Each test tube contained 10% N-acetyl-L-cysteine and 90% liquid ingredient. The panel judged the anti-odor effect in each test tube.
# [3] = panel sniff tests of solvents, ingredients and amines against thiol malodor (general statements); conditions: solvent or ingredient, based on the panel tests
# Procedure: Initially, a malodor compound such as about 5% by weight was prepared in water solution or in oil-in-water emulsion. A sulfone or organic amine of the present embodiments was added at various concentrations for example, ranging from about 2%, 1%, 0.5% and 0.1% to the formulations containing the malodor substance. The composition containing the malodor substance without a sulfone or organic amine was used as the control.
# [4] = 10% malodor compound in anhydrous solution of isopropyl alcohol 50 parts, diethyl tartarate 25 parts, triethyl citrate 25 parts v/v
# [5] = 2% malodor compound in anhydrous solution of isopropyl alcohol 50 parts, diethyl tartarate 25 parts, triethyl citrate 25 parts v/v
SMILES,prevention of malodor produced by a thiol or similar malodor compounds [3],anti-odor effect [2] [%],also measured
CCOC(=O)CNC(=O)[C@H](CS)NC(=O)CC[C@H](N)C(=O)OCC [L-Glutathione diethyl ester],,,"malodor as judged by panel [1, 4]: did not have any malodor"
"CCOC(=O)[C@H](CSC(C)=O)NC(C)=O [N,S-Diacetyl-L-cysteine ethyl ester]",,,"malodor as judged by panel [1, 4]: did not have any malodor"
"COC(=O)[C@H](CSC(C)=O)NC(C)=O [N,S-Diacetyl-L-cysteine methyl ester]",,,"malodor as judged by panel [1, 4]: did not have any malodor"
CCOC(=O)CNC(=O)[C@H](CS)NC(=O)CC[C@H](NC(C)=O)C(=O)OCC [N-Acetyl-L-glutathione diethyl ester],,,"malodor as judged by panel [1, 4]: did not have any malodor; malodor as judged by panel ([1]; 10% malodor compound in diethyl tartarate, anhydrous): did not have any malodor"
CC(=O)N[C@@H](CCC(=O)N[C@@H](CS)C(=O)NCC(=O)O)C(=O)O [N-Acetyl-L-glutathione] (Ac-[γGlu]-Cys-Gly-OH),,,"malodor as judged by panel [1, 5]: did not have any malodor"
CCC(=O)N[C@@H](CS)C(=O)O [N-Propanoyl-L-cysteine],,,"malodor as judged by panel [1, 5]: did not have any malodor"
OCCCCO [butylene glycol],effectively prevent malodor,,"suppression of the malodor, judged by panel ([2]; 10% N-acetyl-L-cysteine and 90% solvent): did not suppress the malodor"
CCOC(=O)C(O)C(O)C(=O)OCC (stereo not drawn) [diethyl tartrate],effectively prevent malodor,100,
CCOCCOCCO [ethoxydiglycol],effectively prevent malodor,100,
CCOC(=O)[C@@H]1CCCN1C(C)=O [ethyl N-acetyl-prolinate],effectively prevent malodor,100,
CCOC(=O)CO [ethyl glycolate],effectively prevent malodor,100,
CC(C)O [isopropyl alcohol],effectively prevent malodor,100,
CCCO [n-propanol],effectively prevent malodor,100,
CCCOC(=O)[C@@H]1CCCN1C(C)=O [propyl N-acetyl-prolinate],effectively prevent malodor,100,
CCOC(=O)CC(O)(CC(=O)OCC)C(=O)OCC [triethyl citrate],effectively prevent malodor,100,
CCCOC(=O)CC(O)(CC(=O)OCCC)C(=O)OCCC [tripropyl citrate],effectively prevent malodor,100,

# — US20060251597A1, “ANTI-ODOR COMPOSITIONS AND THERAPEUTIC USE” (priority 2005, published 2006)
